Patent US20220306617A1, “SUBSTITUTED 1,3-PHENYL HETEROARYL DERIVATIVES AND THEIR USE IN THE TREATMENT OF DISEASE” (NOVARTIS AG, priority 2019, published 2022)
Where a name gives a salt, the structure may show the parent alone.

Molecular target: T1, abc isoform of human TMEM16A channel expressed in CHO cells (Homo sapiens, UniProt Q5XXA6, DEL476-501)
T1 construct: expressed in transfected cells; host or cells: CHO cells, doxycycline-inducible expression under Blasticidin/Zeocin selection
T1 sequence (Q5XXA6 with tags, fused parts or gaps isoform Q5XXA6-5 DEL539-564): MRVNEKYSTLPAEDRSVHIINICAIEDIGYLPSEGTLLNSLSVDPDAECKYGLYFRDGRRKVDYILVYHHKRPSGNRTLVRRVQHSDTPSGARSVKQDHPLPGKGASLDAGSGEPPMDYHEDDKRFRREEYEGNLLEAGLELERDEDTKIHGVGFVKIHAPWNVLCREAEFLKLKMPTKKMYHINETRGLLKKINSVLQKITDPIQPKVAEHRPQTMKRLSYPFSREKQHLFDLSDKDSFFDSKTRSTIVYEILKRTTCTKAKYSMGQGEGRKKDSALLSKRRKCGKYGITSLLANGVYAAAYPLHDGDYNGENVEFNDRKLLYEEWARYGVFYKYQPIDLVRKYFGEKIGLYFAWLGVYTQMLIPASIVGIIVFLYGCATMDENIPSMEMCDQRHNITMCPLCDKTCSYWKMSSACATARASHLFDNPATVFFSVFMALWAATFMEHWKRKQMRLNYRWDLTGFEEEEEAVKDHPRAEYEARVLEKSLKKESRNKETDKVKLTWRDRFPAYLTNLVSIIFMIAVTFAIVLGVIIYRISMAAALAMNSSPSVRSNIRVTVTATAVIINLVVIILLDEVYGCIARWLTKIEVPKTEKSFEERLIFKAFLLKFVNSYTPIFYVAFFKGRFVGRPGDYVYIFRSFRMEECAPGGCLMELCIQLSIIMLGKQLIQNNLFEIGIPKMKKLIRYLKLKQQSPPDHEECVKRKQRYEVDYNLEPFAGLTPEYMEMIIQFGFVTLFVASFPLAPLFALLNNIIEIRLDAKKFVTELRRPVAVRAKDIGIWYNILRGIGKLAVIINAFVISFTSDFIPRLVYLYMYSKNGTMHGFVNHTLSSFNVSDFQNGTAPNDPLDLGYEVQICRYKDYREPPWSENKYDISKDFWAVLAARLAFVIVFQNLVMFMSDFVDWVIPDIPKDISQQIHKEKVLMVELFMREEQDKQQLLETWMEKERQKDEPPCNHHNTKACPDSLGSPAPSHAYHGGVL
Assay: Automated patch clamping (QPatch) assay to measure TMEM16A activity in whole-cell
Format: cell-based
Settings: for EC50: CHO cells expressing human TMEM16A (abc), whole-cell automated patch clamp, Hill fit, read-out: TMEM16A QPATCH assay EC50 V3 EC50; for Emax: CHO, read-out: TMEM16A QPATCH assay EC50 V3 Assay Window (% TMEM16A max activation); for Emax / TMEM16A QPATCH assay EC50 V3 Assay Window (% TMEM16A max activation): maximum current at highest dose relative to reference potentiator at maximal concentration (upper limit) and vehicle (lower limit)
Method in brief: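 CHO cells with doxycycline-induced (1 μg/mL, 18-24 h) human TMEM16A abc isoform; QPatch whole-cell recording, hold −70 mV, step +70 mV 1500 ms, then −90 to +70 mV ramp. Compounds in 0.3% DMSO; EC50 by Hill fit; % max activation relative to vehicle baseline and reference potentiator maximum.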

Row | SMILES | EC50 [nM] | Emax [%] | TMEM16A QPATCH assay EC50 V3 Assay Window (% TMEM16A max activation) [%]
1 | CCC(CC)NC(=O)c1cc(-c2cccc(-c3ncc(C(=O)NCC4CCCCO4)o3)c2)[nH]n1 (stereo not shown) [Example 1.18, 2-(3-(3-(Pentan-3-Ylcarbamoyl)-1H-Pyrazol-5-Yl)Phenyl)-N-((Tetrahydro-2H-Pyran-2-Yl)Methyl)Oxazole-5-Carboxamide] | 180 | 39 | 
2 | CCC(CC)NC(=O)c1cc(-c2cccc(-c3ncc(C(=O)N[C@H](C(=O)OC)C(C)C)o3)c2)[nH]n1 [Example 1.47, (S)-Methyl 3-Methyl-2-(2-(3-(3-(Pentan-3-Ylcarbamoyl)-1H-Pyrazol-5-yl)Phenyl)Oxazole-5-Carboxamido)Butanoate] | 150 | 75 | 
3 | CCC(NC(=O)c1cnc(-c2cccc(-c3cc(C(=O)N[C@@H](C)C4CC4)[nH]n3)c2)o1)C1CC1 (stereo partly drawn) [Example 1.48, 2-(3-(5-(((S)-1-Cyclopropylethyl)Carbamoyl)-1H-Pyrazol-3-Yl)Phenyl)-N-(1-Cyclopropylpropyl)Oxazole-5-Carboxamide] | 70 | 59 | 
4 | C[C@H](NC(=O)c1cc(-c2cccc(-c3ncc(C(=O)NC(C4CC4)C4CC4)o3)c2)nn1CC(O)C(F)(F)F)C1CC1 (single isomer, unassigned) [Example 9.2 (ii)] | 40 |  | 83
5 | CCC(CC)NC(=O)c1cc(-c2cccc(-c3ncc(C(=O)N[C@@H](C)C(=O)OCc4ccccc4)o3)c2)[nH]n1 [Example 1.41, (S)-Benzyl 2-(2-(3-(3-(Pentan-3-Ylcarbamoyl)-1H-Pyrazol-5-yl)Phenyl)Oxazole-5-Carboxamido)Propanoate] | 950 | 75 | 
6 | CCC(CC)NC(=O)c1cc(-c2cccc(-c3ncc(C(=O)NCc4c(F)cccc4F)o3)c2)[nH]n1 [Example 1.43, N-(2,6-Difluorobenzyl)-2-(3-(3-(Pentan-3-Ylcarbamoyl)-1H-Pyrazol-5-yl)Phenyl)Oxazole-5-Carboxamide] | 430 | 70 | 
7 | CCC(CC)NC(=O)c1cnc(-c2cccc(-c3cc(C(=O)NC(C4CC4)C4CCCO4)n[nH]3)c2)o1 (single isomer, unassigned) [Example 3.4 (iv), 2-(3-(3-((Cyclopropyl(Tetrahydrofuran-2-Yl)Methyl)Carbamoyl)-1H-Pyrazol-5-Yl)Phenyl)-N-(Pentan-3-Yl)Oxazole-5-Carboxamide] | 380 |  | 73

More lines, now with the values ahead:

Row | EC50 [nM] | Emax [%] | TMEM16A QPATCH assay EC50 V3 Assay Window (% TMEM16A max activation) [%] | SMILES
8 | 30 | 88 |  | CCC(CC)NC(=O)c1cnc(-c2cccc(-c3nnc(C(=O)NCC4CCCCC4)[nH]3)c2)o1 [Example 13.5, 2-(3-(5-((Cyclohexylmethyl)Carbamoyl)-4H-1,2,4-Triazol-3-Yl)Phenyl)-N-(Pentan-3-Yl)Oxazole-5-Carboxamide]
9 | 80 | 73 |  | CCC(CC)NC(=O)c1cnc(-c2cccc(-c3nc(C(=O)NC(CC)CC)n(CC(=O)OC(C)(C)C)n3)c2)o1 [Example 15.10, Tert-Butyl 2-(5-(Pentan-3-Ylcarbamoyl)-3-(3-(5-(Pentan-3-Ylcarbamoyl)Oxazol-2-Yl)Phenyl)-1H-1,2,4-Triazol-1-Yl)Acetate]
10 | 170 | 66 |  | CCOC(=O)[C@H](CC1CCCCC1)NC(=O)c1cc(-c2cccc(-c3ncc(C(=O)NC(CC)CC)o3)c2)[nH]n1 [Example 3.17, (S)-Ethyl 3-Cyclohexyl-2-(5-(3-(5-(Pentan-3-Ylcarbamoyl)Oxazol-2-Yl)Phenyl)-1 H-Pyrazole-3-Carboxamido)Propanoate]
11 | 860 | 72 |  | CCOC(=O)[C@H](C)NC(=O)c1cc(-c2cccc(-c3ncc(C(=O)NC(CC)CC)o3)c2)[nH]n1 [Example 3.63, (S)-Ethyl 2-(5-(3-(5-(Pentan-3-Ylcarbamoyl)Oxazol-2-Yl)Phenyl)-1H-Pyrazole-3-Carboxamido)Propanoate Trifluoroacetate]
12 | 350 | 84 |  | CCC(CC)NC(=O)c1cnc(-c2cccc(-c3cc(C(=O)NC(Cc4ccccc4)C(=O)OC)n[nH]3)c2)o1 (stereo not shown) [Example 3.28, Methyl 2-(5-(3-(5-(Pentan-3-Ylcarbamoyl)Oxazol-2-Yl)Phenyl)-1H-Pyrazole-3-Carboxamido)-3-Phenylpropanoate]
13 | 190 | 74 |  | CCC(CC)NC(=O)c1cnc(-c2cccc(-c3cc(C(=O)Nc4cccc(OC(C)C)c4)n[nH]3)c2)o1 [Example 3.21, 2-(3-(3-((3-Isopropoxyphenyl)Carbamoyl)-1H-Pyrazol-5-Yl)Phenyl)-N-(Pentan-3-Yl)Oxazole-5-Carboxamide]
14 | 1000 | 61 |  | CCC(CC)NC(=O)c1cnc(-c2cccc(-c3nc(C(=O)NC(CC)CC)n(CCN(C)C)n3)c2)o1 [Example 15.4, 2-(3-(1-(2-(Dimethylamino)Ethyl)-5-(Pentan-3-Ylcarbamoyl)-1H-1,2,4-Triazol-3-Yl)Phenyl)-N-(Pentan-3-Yl)Oxazole-5-Carboxamide]
15 | 32 | 112 |  | CCOC(=O)[C@@H](NC(=O)c1cc(-c2cccc(-c3ncc(C(=O)N[C@H](C(=O)OCC)C(C)C)o3)c2)[nH]n1)C(C)C [Example 2.2, (S)-Ethyl 2-(2-(3-(3-(((S)-1-Ethoxy-3-Methyl-1-Oxobutan-2-Yl)Carbamoyl)-1 H-Pyrazol-5-Yl)Phenyl)Oxazole-5-Carboxamido)-3-Methylbutanoate]
16 | 20 | 91 |  | C[C@H](NC(=O)c1cnc(-c2cccc(-c3nnc(C(=O)NC(C4CC4)C4CC4)[nH]3)c2)o1)C1CC1 [Example 12.7, (S)-N-(1-Cyclopropylethyl)-2-(3-(5-((Dicyclopropylmethyl)Carbamoyl)-4H-1,2,4-Triazol-3-Yl)Phenyl)Oxazole-5-Carboxamide]
17 | 130 | 177 |  | CCC(CC)NC(=O)c1cnc(-c2cccc(-c3nc(C(=O)NC(CC)CC)n(CCO)n3)c2)o1 [Example 16.0, 2-(3-(1-(2-Hydroxyethyl)-5-(Pentan-3-Ylcarbamoyl)-1H-1,2,4-Triazol-3-Yl)Phenyl)-N-(Pentan-3-Yl)Oxazole-5-Carboxamide]
18 | 370 | 97 |  | CCOC(=O)[C@@H](NC(=O)c1nnc(-c2cccc(-c3ncc(C(=O)N[C@@H](C)C4CC4)o3)c2)[nH]1)C(C)C [Example 13.6, (S)-Ethyl 2-(5-(3-(5-(((S)-1-Cyclopropylethyl)Carbamoyl)Oxazol-2-Yl)Phenyl)-4H-1,2,4-Triazole-3-Carboxamido)-3-Methylbutanoate]
19 | 230 | 82 |  | CCC(CC)NC(=O)c1cnc(-c2cccc(-c3cc(C(=O)N[C@H](C)C4CCCCC4)n[nH]3)c2)o1 [Example 3.44, (R)-2-(3-(3-((1-Cyclohexylethyl)Carbamoyl)-1H-Pyrazol-5-Yl)Phenyl)-N-(Pentan-3-Yl)Oxazole-5-Carboxamide]
20 | 190 | 92 |  | COC(=O)[C@@H](NC(=O)c1cnc(-c2cccc(-c3nnc(C(=O)N[C@@H](C)C4CC4)[nH]3)c2)o1)C(C)(C)C [Example 12.10, (S)-Methyl 2-(2-(3-(5-(((S)-1-Cyclopropylethyl)Carbamoyl)-4H-1,2,4-Triazol-3-Yl)Phenyl)Oxazole-5-Carboxamido)-3,3-Dimethylbutanoate]
21 | 80 | 97 |  | CCOC(=O)[C@@H](NC(=O)c1cnc(-c2cccc(-c3nc(C(=O)NC(C4CC4)C(F)(F)F)n[nH]3)c2)o1)C(C)C (stereo partly shown) [Example 12.14]
22 | 40 | 110 |  | CCOC(=O)[C@@H](NC(=O)c1cc(-c2cccc(-c3ncc(C(=O)NC(CC)CC)o3)c2)nn1CCO)C(C)C [Example 5.0, (S)-ethyl 2-(1-(2-hydroxyethyl)-3-(3-(5-(pentan-3-ylcarbamoyl)oxazol-2-yl)phenyl)-1 H-pyrazole-5-carboxamido)-3-methylbutanoate]
23 | 470 | 77 |  | COC(=O)[C@H](CC1CCCCC1)NC(=O)c1cnc(-c2cccc(-c3nnc(C(=O)N[C@@H](C)C4CC4)[nH]3)c2)o1 [Example 12.17, (S)-Methyl 3-Cyclohexyl-2-(2-(3-(5-(((S)-1-Cyclopropylethyl)Carbamoyl)-4H-1,2,4-Triazol-3-Yl)Phenyl)Oxazole-5-Carboxamido)Propanoate]
